Results published in paper PMC6736568, “Discovery of Novel Anti-cryptosporidial Activities From Natural Products by in vitro High-Throughput Phenotypic Screening” (Frontiers in Microbiology, 2019).
Structures can show the parent of a compound that is named as a salt. Where two headings read alike, the source gives them in different places.

Legend:
Cryptosporidium parvum = test: qRT-PCR assay of the growth of C. parvum in vitro in HCT-8 host cells (primary and secondary screening, EC50); format: cell-based; details: Cryptosporidium parvum, HCT-8; for inhibition at 10 µM: primary screening at 10 uM, read-out: Inhibition (%); for inhibition at 3.3 µM: secondary screening at 3.3 uM, read-out: % Inhibition (3.3 uM)
[1] = primary screening at 10 uM, treated vs control

| SMILES | inhibition at 10 µM (Cryptosporidium parvum) [%] | Hs18S ΔCT (HCT-8 host cells (Hs18S); human, 41 h, 10 μM) | cytotoxicity at 41 h, 10 µM (in vitro; human) [%] | inhibition at 3.3 µM (Cryptosporidium parvum) [%] | Hs18S ΔCT (HCT-8 host cells (Hs18S); [1]) | cytotoxicity at 10 µM (in vitro) [%] | cytotoxicity at 41 h, 10 µM (in vitro) [%] |
| --- | --- | --- | --- | --- | --- | --- | --- |
| COC1=C[C@@H](C)[C@@H]2C[C@H]3OC(=O)C[C@H]4C(C)=C(OC)C(=O)[C@H]([C@@]2(C)C1=O)[C@@]34C [QUASSIN] | 29.4 | 0.08 | 5.1 | – | – | – | – |
| CO[C@H]1[C@H](O)[C@@H](O)[C@H](O)[C@H](O)[C@H]1O [QUEBRACHITOL] | -39 | -0.16 | -11.4 | – | – | – | – |
| O=c1c(O)c(-c2ccc(O)c(O)c2)oc2cc(O)cc(O)c12 [QUERCETIN] | 78.4 | – | – | -27 | 0.34 | 21.1 | – |
| C[C@@H]1O[C@@H](Oc2c(-c3ccc(O)c(O)c3)oc3cc(O)cc(O)c3c2=O)[C@H](O)[C@H](O)[C@H]1O [QUERCITRIN] | 3.89 | – | – | – | -0.65 | -57.2 | – |
| O=C(O)[C@]1(O)C[C@@H](O)[C@@H](O)[C@H](O)C1 [QUINIC ACID] | 69.4 | 0.23 | 14.6 | -6 | – | – | – |
| C=C[C@H]1C[N@@]2CC[C@H]1C[C@@H]2[C@@H](O)c1ccnc2ccc(OC)cc12 [QUINIDINE GLUCONATE] | 11.2 | -0.03 | -2 | – | – | – | – |
| C=C[C@H]1C[N@@]2CC[C@H]1C[C@H]2[C@H](O)c1ccnc2ccc(OC)cc12 [QUININE SULFATE] | -15.4 | -0.12 | -8.7 | – | – | – | – |
| COC(=O)[C@H]1[C@H]2C[C@H]3c4[nH]c5ccccc5c4CCN3C[C@H]2CC[C@@H]1O [RAUWOLSCINE HYDROCHLORIDE] | 22.9 | -0.17 | -12.6 | – | – | – | – |
| COC(=O)[C@H]1[C@H]2C[C@@H]3c4[nH]c5cc(OC)ccc5c4CCN3C[C@H]2C[C@@H](OC(=O)c2cc(OC)c(OC)c(OC)c2)[C@@H]1OC [RESERPINE] | 87 | 0.50 | 29.4 | 24 | – | – | – |
| COc1ccc(/C=C/c2cc(O)cc(O)c2)cc1 [RESVERATROL 4'-METHYL ETHER] | -37.3 | – | – | – | -0.37 | -29 | – |
| Oc1ccc(/C=C/c2cc(O)cc(O)c2)cc1 [RESVERATROL] | 93.5 | – | -9.6 | -24 | -0.13 | – | – |
| CC1=C(/C=C/C(C)=C/C=C/C(C)=C/CO)C(C)(C)CCC1 [RETINOL] | 6.73 | 0.09 | 6.3 | – | – | – | – |
| COc1cc(O)c2c(=O)c(OC)c(-c3ccc(OC)c(OC)c3)oc2c1 [RETUSIN] | 33.2 | – | – | – | 0.27 | 17 | – |
| CNc1ccccc1C(=O)N1CCc2c([nH]c3ccccc23)C1=O [RHETSININE] | -31.2 | 0.51 | 29.6 | – | – | – | – |
| COC1=C(O)C(=O)c2c(cc3oc(C(C)=O)c(O)c3c2O)C1=O [RHODOCLADONIC ACID] | 1.58 | -0.03 | -2.1 | – | – | – | – |
| C[C@@H]1O[C@@H](O[C@H]2[C@H](Oc3cc(O)c4c(=O)cc(-c5ccc(O)cc5)oc4c3)O[C@H](CO)[C@@H](O)[C@@H]2O)[C@H](O)[C@H](O)[C@H]1O [RHOIFOLIN] | 54.6 | -0.26 | -20 | – | – | – | – |
| Cc1cc2nc3c(=O)[nH]c(=O)nc-3n(C[C@H](O)[C@H](O)[C@H](O)CO)c2cc1C [RIBOFLAVIN] | -26.6 | 0.02 | 1.1 | – | – | – | – |
| COc1ccc(-c2c(O)c3c(OC)c4c(cc3oc2=O)OC(C)(C)C=C4)cc1 [ROBUSTIC ACID] | 9.13 | 0.28 | 17.8 | – | – | – | – |

| SMILES | inhibition at 10 µM (Cryptosporidium parvum) [%] | Hs18S ΔCT (HCT-8 host cells (Hs18S); human, 41 h, 10 μM) | cytotoxicity at 41 h, 10 µM (in vitro; human) [%] | inhibition at 3.3 µM (Cryptosporidium parvum) [%] | Hs18S ΔCT (HCT-8 host cells (Hs18S); [1]) | cytotoxicity at 10 µM (in vitro) [%] | cytotoxicity at 41 h, 10 µM (in vitro) [%] |
| --- | --- | --- | --- | --- | --- | --- | --- |
| O=C(/C=C/c1ccc(O)c(O)c1)O[C@H](Cc1ccc(O)c(O)c1)C(=O)O [ROSMARINIC ACID] | 37.3 | -0.04 | -3.1 | – | – | – | – |
| C=C(C)[C@H]1Cc2c(ccc3c2O[C@@H]2COc4cc(OC)c(OC)cc4[C@@H]2C3=O)O1 [ROTENONE] | 74.7 | – | – | 76 | 1.24 | 57.8 | – |
| COc1cc2c(cc1OC)[C@@H]1C(=O)c3ccc(OC)c(CC=C(C)C)c3O[C@@H]1CO2 [ROTENONIC ACID, METHYL ETHER] | 11.8 | – | – | – | 0.30 | 18.7 | – |
| CC[C@@]1(O)C[C@H](O)c2c(cc3c(c2O)C(=O)c2c(O)ccc(O)c2C3=O)[C@H]1C(=O)OC [RUTILANTINONE] | 92 | – | – | -3 | -0.54 | -45.2 | – |
| C=CCc1ccc2c(c1)OCO2 [SAFROLE] | 76.2 | – | – | 8 | -0.44 | -35.3 | – |
| OCc1ccccc1O[C@@H]1O[C@H](CO)[C@@H](O)[C@H](O)[C@H]1O [SALICIN] | 37.1 | 0.58 | 32.9 | – | – | – | – |
| OC[C@H]1O[C@@H](OCCc2ccc(O)cc2)[C@H](O)[C@@H](O)[C@@H]1O [SALIDROSIDE] | 14.8 | -0.22 | -16.1 | – | – | – | – |
| COc1cc2c(cc1OC)[C@H](C)NCC2 [SALSOLIDINE] | 47.1 | – | – | – | 0.32 | – | 20 |
| C[n+]1cc2c3c(ccc2c2ccc4cc5c(cc4c21)OCO5)OCO3 [SANGUINARINE SULFATE] | 18.6 | – | – | – | 0.07 | 4.9 | – |
| CC1=C2[C@H]3OC(=O)[C@@H](C)[C@@H]3CC[C@@]2(C)C=CC1=O [SANTONIN] | 9.41 | – | – | – | 0.18 | 11.8 | – |
| COc1ccc2c(c1)OC/C(=C\c1ccc(OC)c(O)c1)C2=O [SAPPANONE A DIMETHYL ETHER] | 11.1 | 0.18 | 11.8 | – | – | – | – |
| COc1ccc2c(c1)OC/C(=C/c1ccc(OC)c(OC)c1)C2=O [SAPPANONE A TRIMETHYL ETHER] | 3.07 | – | – | – | 0.23 | 14.7 | – |
| C=C[C@](C)(O)CC[C@@H]1[C@@]2(C)CCCC(C)(C)[C@@H]2CC[C@@]1(C)O [SCLAREOL] | 7.29 | -0.15 | -10.7 | – | – | – | – |
| CN1[C@@H]2C[C@@H](OC(=O)[C@H](CO)c3ccccc3)C[C@H]1[C@@H]1O[C@@H]12 [SCOPOLAMINE HYDROBROMIDE] | 14 | – | – | – | -0.37 | -29.6 | – |
| O=C1C=C2C=C[C@@H]3C[C@@]2(O1)[C@H]1CCCCN31 [SECURININE] | 9.24 | – | – | – | 0.05 | 3.6 | – |
| O=C(O)c1cc(O)c2c(c1)[C@H]([C@H]1c3cc(C(=O)O)cc(O)c3C(=O)c3c(O[C@@H]4O[C@H](CO)[C@@H](O)[C@H](O)[C@H]4O)cccc31)c1cccc(O[C@@H]3O[C@H](CO)[C@@H](O)[C@H](O)[C@H]3O)c1C2=O [SENNOSIDE A] | -4.71 | – | – | – | -0.08 | -6.1 | – |
| NCCc1c[nH]c2ccc(O)cc12 [SEROTONIN HYDROCHLORIDE] | 10.2 | – | – | – | -0.40 | -31.7 | – |
